Test results taken from patent US8211662B2, “Nitroreductase enzymatic substrates” (Biomerieux, priority 2007, dated 2012).

How the values were obtained:
[1] = test system: MRSA NCTC 11939; assay: Nitroreductase detection on Columbia agar, colonies read under UV; format: cell-based, Staphylococcus aureus; design: key: − = no fluorescence detected; +/− = weak fluorescence; + = medium fluorescence; ++ = strong fluorescence; conditions: Table 3; 100 mg/l in Columbia agar, 24 h 37° C., UV 360-365 nm
Outline: (§1)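 Collection strains of bacteria and yeasts grew for 24 h at 37° C. on Columbia agar carrying 100 mg/l (final) substrate. Colonies were then checked by eye under UV illumination at 360-365 nm.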

[2] = test system: Candida glabrata NCPF 3943; assay: as above; format: cell-based; design: key to Intensity of fluorescence, Candida glabrata NCPF3943 / F: fluorescence (intensity), Candida glabrata NCPF 3943 / Intensity of the fluorescence, Candida glabrata NCPF 3943: − = no fluorescence detected; +/− = weak fluorescence; + = medium fluorescence; ++ = strong fluorescence; conditions: 100 mg/l in Columbia agar, 24 h 37° C.
Outline: as §1

[3] = test system: Providencia rettgeri NCTC 7475; assay: as above; format: cell-based; design: key: − = no fluorescence detected; +/− = weak fluorescence; + = medium fluorescence; ++ = strong fluorescence; conditions: Table 3; 100 mg/l in Columbia agar, 24 h 37° C., UV 360-365 nm
Outline: as §1

[4] = test system: Serratia marcescens NCTC 10211; assay: as above; format: cell-based; design: key: − = no fluorescence detected; +/− = weak fluorescence; + = medium fluorescence; ++ = strong fluorescence; conditions: Table 3; 100 mg/l in Columbia agar, 24 h 37° C., UV 360-365 nm
Outline: as §1

[5] = test system: Bacillus subtilis NCTC 9372; assay: as above; format: cell-based; design: key: − = no fluorescence detected; +/− = weak fluorescence; + = medium fluorescence; ++ = strong fluorescence; conditions: Table 3; 100 mg/l in Columbia agar, 24 h 37° C., UV 360-365 nm
Outline: as §1

[6] = test system: Staphylococcus aureus NCTC 6571; assay: as above; format: cell-based; design: key: − = no fluorescence detected; +/− = weak fluorescence; + = medium fluorescence; ++ = strong fluorescence; conditions: Table 3; 100 mg/l in Columbia agar, 24 h 37° C., UV 360-365 nm
Outline: as §1

[7] = test system: Yersinia enterocolitica NCTC 11176; assay: as above; format: cell-based; design: key: − = no fluorescence detected; +/− = weak fluorescence; + = medium fluorescence; ++ = strong fluorescence; conditions: Table 3; 100 mg/l in Columbia agar, 24 h 37° C., UV 360-365 nm
Outline: as §1

[8] = test system: Enterococcus faecalis NCTC 775; assay: as above; format: cell-based; design: key: − = no fluorescence detected; +/− = weak fluorescence; + = medium fluorescence; ++ = strong fluorescence; conditions: Table 3; 100 mg/l in Columbia agar, 24 h 37° C., UV 360-365 nm
Outline: as §1

[9] = test system: Enterobacter cloacae NCTC 11936; assay: as above; format: cell-based; design: key: − = no fluorescence detected; +/− = weak fluorescence; + = medium fluorescence; ++ = strong fluorescence; conditions: Table 3; 100 mg/l in Columbia agar, 24 h 37° C., UV 360-365 nm
Outline: as §1

[10] = test system: Enterococcus faecium NCTC 7171; assay: as above; format: cell-based; design: key: − = no fluorescence detected; +/− = weak fluorescence; + = medium fluorescence; ++ = strong fluorescence; conditions: Table 3; 100 mg/l in Columbia agar, 24 h 37° C., UV 360-365 nm
Outline: as §1

[11] = test system: Escherichia coli NCTC 10418; assay: as above; format: cell-based; design: key: − = no fluorescence detected; +/− = weak fluorescence; + = medium fluorescence; ++ = strong fluorescence; conditions: Table 3; 100 mg/l in Columbia agar, 24 h 37° C., UV 360-365 nm
Outline: as §1

[12] = test system: Staphylococcus epidermidis NCTC 11047; assay: as above; format: cell-based; design: key: − = no fluorescence detected; +/− = weak fluorescence; + = medium fluorescence; ++ = strong fluorescence; conditions: Table 3; 100 mg/l in Columbia agar, 24 h 37° C., UV 360-365 nm
Outline: as §1

[13] = test system: Candida albicans ATCC 90028; assay: as above; format: cell-based; design: key: − = no fluorescence detected; +/− = weak fluorescence; + = medium fluorescence; ++ = strong fluorescence; conditions: Table 3; 100 mg/l in Columbia agar, 24 h 37° C., UV 360-365 nm
Outline: as §1

[14] = test system: Citrobacter freundii 46262 (wild); assay: as above; format: cell-based; design: key: − = no fluorescence detected; +/− = weak fluorescence; + = medium fluorescence; ++ = strong fluorescence; conditions: Table 3; 100 mg/l in Columbia agar, 24 h 37° C., UV 360-365 nm
Outline: as §1

[15] = test system: Pseudomonas aeruginosa NCTC 10662; assay: as above; format: cell-based; design: key: − = no fluorescence detected; +/− = weak fluorescence; + = medium fluorescence; ++ = strong fluorescence; conditions: Table 3; 100 mg/l in Columbia agar, 24 h 37° C., UV 360-365 nm
Outline: as §1

[16] = test system: Listeria monocytogenes NCTC 11994; assay: as above; format: cell-based; design: key: − = no fluorescence detected; +/− = weak fluorescence; + = medium fluorescence; ++ = strong fluorescence; conditions: Table 3; 100 mg/l in Columbia agar, 24 h 37° C., UV 360-365 nm
Outline: as §1

[17] = test system: Streptococcus pyogenes NCTC 8306; assay: as above; format: cell-based; design: key: − = no fluorescence detected; +/− = weak fluorescence; + = medium fluorescence; ++ = strong fluorescence; conditions: Table 3; 100 mg/l in Columbia agar, 24 h 37° C., UV 360-365 nm
Outline: as §1

[18] = test system: Burkholderia cepacia 1222; assay: as above; format: cell-based; design: key: − = no fluorescence detected; +/− = weak fluorescence; + = medium fluorescence; ++ = strong fluorescence; conditions: Table 3; 100 mg/l in Columbia agar, 24 h 37° C., UV 360-365 nm
Outline: as §1

[19] = test system: Salmonella typhimurium NCTC 74; assay: as above; format: cell-based; design: key to Intensity of fluorescence, Salmonella typhimurium NCTC 74 / F: fluorescence (intensity), Salmonella typhimurium NCTC 74 / Intensity of the fluorescence, Salmonella typhimurium NCTC 74: − = no fluorescence detected; +/− = weak fluorescence; + = medium fluorescence; ++ = strong fluorescence; conditions: Table 3; 100 mg/l in Columbia agar, 24 h 37° C., UV 360-365 nm
Outline: as §1

[20] = test system: Morganella morganii 462403 (wild); assay: as above; format: cell-based; design: key to Intensity of fluorescence, Morganella morganii 462403 / F: fluorescence (intensity), Morganella morganii 462403 (wild) / Intensity of the fluorescence, Morganella morganii 462403 (wild): − = no fluorescence detected; +/− = weak fluorescence; + = medium fluorescence; ++ = strong fluorescence; conditions: Table 3; 100 mg/l in Columbia agar, 24 h 37° C., UV 360-365 nm
Outline: as §1

## O=[N+]([O-])c1ccc(Cl)cc1-c1nc2ccccc2o1 [Substrate 4, 2-(2′-Nitro-5′-chlorophenyl)benzoxazole]
other
  melting point: 130 to 132 °C

## O=[N+]([O-])c1ccccc1-c1nc2ccccc2o1 [Substrate 1]
[1]
  F: fluorescence (intensity), MRSA NCTC 11939: ++
[2]
  G: growth, Candida glabrata NCPF 3943: No G
[2]; Table 3, UV 360-365 nm
  F: fluorescence (intensity), Candida glabrata NCPF 3943: −
[3]
  F: fluorescence (intensity), Providencia rettgeri NCTC 7475: ++
[4]
  F: fluorescence (intensity), Serratia marcescens NCTC 10211: ++
[5]
  F: fluorescence (intensity), Bacillus subtilis NCTC 9372: −
[6]
  F: fluorescence (intensity), Staphylococcus aureus NCTC 6571: ++
[7]
  F: fluorescence (intensity), Yersinia enterocolitica NCTC 11176: ++
[8]
  F: fluorescence (intensity), Enterococcus faecails NCTC 775: ++
[9]
  F: fluorescence (intensity), Enterobacter cloacae NCTC 11936: ++
[10]
  F: fluorescence (intensity), Enterococcus faecium NCTC 7171: +
[11]
  F: fluorescence (intensity), Escherichia coli NCTC 10418: ++
[12]
  F: fluorescence (intensity), Staphylococcus epidermidis NCTC 11047: +
[13]
  F: fluorescence (intensity), Candida albicans ATCC 90028: −
[14]
  F: fluorescence (intensity), Citrobacter freundii 46262 (wild): ++
[15]
  F: fluorescence (intensity), Pseudomonas aeruginosa NCTC 10662: ++
[16]
  F: fluorescence (intensity), Listeria monocyto genes NCTC 11994: ++
[17]
  F: fluorescence (intensity), Streptococcus pyogenes NCTC 8306: +
[18]
  F: fluorescence (intensity), Burkholderia cepacia 1222: ++
[19]
  F: fluorescence (intensity), Salmonella typhimurium NCTC 74: ++
[20]
  F: fluorescence (intensity), Morganella morganii 462403 (wild): ++
